{
  "source": "patent US20120107323A1",
  "about": "“KINASE PROTEIN BINDING INHIBITORS” (University of Florida, priority 2009, published 2012)",
  "key": {"MCF10A cells": {"test_system": "MCF10A cells", "experiment": "Cell viability (MTT), MCF10A", "type": "cell-based", "settings": "Homo sapiens, MCF-10A, 72 hours, read-out: IC50 of INT2-31, cell viability", "description": "(§1) Cell viability (MTT) and CFSE Proliferation assay: Cells were plated in 96-well plates and let adhere overnight. After cell treatment, cell viability was measured by 3-(4,5-dimethylthiazol-2-yl)-2,5-diphenyl tetrazolium bromide (MTT) assay (CellTiter 96® Aqueous, Promega, Madison, Wis.).\nCell viability and detachment assays: After cells were treated with siRNA transfection, cell viability was measured by 3-(4,5-dimethylthiazol2-yl)-2,5-diphenyl tetrazolium bromide (MTT) assay (CellTiter 96® AQueous, Promega, Madison, Wis.). Briefly, 20 μl of the tetrazolium compound was added to each well. The cells were then incubated at 37° C. for 1 h. The plate was read at 490 nm with a plate reader to determine the viability. In detachment assays, detached and attached cells were harvested separately and counted in a hemocytometer. The percentage of detachment was calculated by dividing the number of detached cells by the total number of cells. Apoptosis assays: After treatment, attached and detached cells were collected, counted and prepared for terminal uridine deoxynucleotidyl transferase (TUNEL) assay by utilizing an APO-BRDU kit (BD Pharmingen, San Diego, Calif.) according to the manufacturer's instructions. Stained cells were analyzed with a fluorescence-activated cell sorting-Calibur flow cytometer (BD Biosciences). […] Apoptotic cells were also analyzed by Hoechst staining. […]"}, "[1]": {"test_system": "FAK and IGF-1R pathway effectors", "experiment": "Western blot of signaling in melanoma cell lines", "type": "cell-based, human", "text": "Computational Docking The crystal structures of the N-terminal domain of FAK (PDB code 2AL6) (22) and the kinase domain of IGF-1R(PDB 1P40A) (23) were utilized for in silico molecular modeling of their interaction as previously described. The three-dimensional coordinates of compound NSC344553 (INT2-31), obtained from the database of the National Cancer Institute, Developmental Therapeutics Program (NCI/DTP), were docked onto the predicted interface of the amino-terminus of FAK (amino acids 127-243) with the intracytoplasmic portion of IGF-1R (21). All docking calculations were performed with the University of California-San Francisco DOCK 5.1 program, using a clique-matching algorithm to orient small molecule structures with sets of spheres that describe the target sites on FAK (37). 100 orientations were created for NSC344553 in the target site and were scored using the computer program grid-based scoring function. Docking calculations were performed on the University of Florida High Performance Computing supercomputing cluster (http:hpc.ufl.edu). The intermolecular energies for all configurations of NSC 344553 in binding to FAK-NT2 were calculated as the sum of electrostatic and van der Waals energies. These energy terms were evaluated as correlation functions, which were computed efficiently with Fast Fourier Transforms. Production of GST-fusion proteins: The FAK-GST plasmid constructs (pGEX vector) were kindly provided by Dr. Elena Kurenova (Roswell Park Cancer Institute, Buffalo, N.Y.). His-tagged IGF-1R protein was purchased from Blue Sky Biotechnology (Worchester, Mass.). The GST-fusion proteins (FAK fragments) were expressed in BL21 (DE3) Escherichia coli bacteria by incubation with 0.2 mM isopropyl b-D-galactopyranoside (IPTG) for 6 h at 37° C. The bacteria were lysed by sonication, and the fusion proteins were purified with glutathione-Sepharose 4B beads (GE Healthcare, NJ). Pull-down assay: For the pull-down binding assay, His-tagged IGF-1R fragment protein (200 ng) were precleared with GST immobilized on glutathione-Sepharose 4B beads. The precleared His-tagged protein was incubated with 0.2 μg of GST-FAK fusion protein immobilized on the glutathione-Sepharose 4B beads for 1 h at 4° C. and then washed 3× with PBS. Equal amounts of GST-fusion proteins were used for each binding assay. Bound proteins were boiled in 6× Laemmli buffer and analyzed by SDS-PAGE and Western blotting. Immunoprecipitation and western blotting: Cells were washed twice with ice cold 1×PBS and lysed in buffer containing 20 mM Tris, pH 7.4, 150 mM NaCl, 1% NP-40, 5 mM EDTA acid, protease inhibitors (Complete™ Protease Inhibitor, Roche, N.J.) and phosphatase inhibitors (Calbiochem, Calif.). For immunoprecipitation, 100-200 μg of total cell extract was used for each sample. The extracts were incubated with 1 μg of antibody overnight at 4° C. Next, 25 μl of protein A/G-agarose beads were added and the samples were incubated for 2 h at 4° C. The precipitates were washed 4× with lysis buffer and samples containing 30 μg of protein were resolved by SDS-PAGE. The intensity of the bands in the western blots was measured with scion image analysis software program. Short hairpin RNA Transfection of cells: Control shRNA (mock) and FAK shRNAs was obtained from Open Biosystems. The sequences of short hairpin RNAs against human FAK were: (5′-[…] TCCAATCGTTTTG-3′; 5′-[…]-3′) and control shRNA (mock) (5′-[…]-3′). For the transfection of cells (2×10^5 cells/well) were seeded into 6-well plates in 2 ml medium one day prior to transfection. According to the protocols of the manufacturer, cells were transfected using Lipofectamine 2000 reagent (Invitrogen, CA).\nWestern blotting: boiled samples containing 30 μg of protein were resolved by sodium dodecyl sulfate-polyacrylamide gel electrophoresis followed by transferring to polyvinylidene difluoride membrane (Bio-Rad, Hercules, Calif.). […]"}, "[2]": {"test_system": "FAK +/+ and FAK −/− mouse embryonic fibroblast", "experiment": "MTT assay on FAK wildtype and null fibroblasts", "type": "cell-based", "description": "as §1\nCell proliferation assay: Cell proliferation assay (Promega) using CellTiter 96 aqueous one solution was performed by adding a small amount of the One Solution Reagent directly to culture wells, incubating for 1-4 hours and then recording absorbance at 490 nm with a spectrophotometric plate reader. The quantity of formazan product as measured by the amount of 490 nm absorbance was directly proportional to the number of living cells in culture.\nCell viability and detachment assays: After cells were treated with siRNA transfection, cell viability was measured by 3-(4,5-dimethylthiazol2-yl)-2,5-diphenyl tetrazolium bromide (MTT) assay (CellTiter 96® AQueous, Promega, Madison, Wis.). Briefly, 20 μl of the tetrazolium compound was added to each well. The cells were then incubated at 37° C. for 1 h. The plate was read at 490 nm with a plate reader to determine the viability. In detachment assays, detached and attached cells were harvested separately and counted in a hemocytometer. The percentage of detachment was calculated by dividing the number of detached cells by the total number of cells. Apoptosis assays: After treatment, attached and detached cells were collected, counted and prepared for terminal uridine deoxynucleotidyl transferase (TUNEL) assay by utilizing an APO-BRDU kit (BD Pharmingen, San Diego, Calif.) according to the manufacturer's instructions. Stained cells were analyzed with a fluorescence-activated cell sorting-Calibur flow cytometer (BD Biosciences). Calculation of the percentage of apoptotic cells in the sample was completed with CellQuest software (BD Biosciences). Apoptotic cells were also analyzed by Hoechst staining. Hoechst 33342 ([…]) was added to the fixed cells and the specimens were mounted on glass coverslips. The slides were viewed under the Zeiss microscope for apoptotic nuclei. The percent of apoptotic cells was calculated as the ratio of apoptotic cells to total number of cells."}, "melanoma tumor": {"test_system": "melanoma tumor", "experiment": "Melanoma tumor in nude mice, 5 days of treatment", "type": "in vivo", "settings": "15 mg/kg intraperitoneal for 5 days, p<0.05"}},
  "data": [
    {"smiles": "CSc1ncnc2c1ccn2C1O[C@H](COP(=O)(O)O)[C@@H](O)[C@H]1O", "note": "(stereo partly drawn) [INT2-31, 4-(Methylthio)-7-(5-O-phosphono-D-ribofuranosyl)-{7H-Pyrrolo[2,3-d]pyrimidine}]", "values": [
      {"measurement": "IC50", "setting": "MCF10A cells", "result": 100, "unit": "µM"},
      {"measurement": "dose necessary to significantly decrease p-Akt", "setting": "[1]; A375 cells", "result": "1 to 5", "unit": "µM"},
      {"measurement": "time course of Akt phosphorylation", "setting": "[1]; C8161, 5 μM, 24, 48 and 72 hours", "result": "some dephosphorylation after 24 hours of treatment with a sustained effect at 72 hours"},
      {"measurement": "dose necessary to significantly decrease p-Akt", "setting": "[1]; SK-MEL-28 cells", "result": "5 to 10", "unit": "µM"},
      {"measurement": "p-ERK", "setting": "[1]; all cell lines, higher doses", "result": "slight decrease"},
      {"measurement": "constitutive and IGF-1 induced signaling to AKT", "setting": "[1]; three melanoma cell lines", "result": "consistent inhibition"},
      {"measurement": "constitutive or IGF-1 induced phosphorylation of IGF-1R", "setting": "[1]; three melanoma cell lines", "result": "no significant effect"},
      {"measurement": "constitutive phosphorylation of FAK", "setting": "[1]; three melanoma cell lines", "result": "no significant effect"},
      {"measurement": "proliferation of FAK+/+ fibroblast cells", "setting": "[2]; 0.05 μM, 72-hour treatment", "result": "reduced the proliferation"},
      {"measurement": "proliferation of FAK−/− cells", "setting": "[2]; 0.05 μM, 72-hour treatment", "result": "no effect"},
      {"measurement": "effect on FAK wildtype compared to null fibroblasts", "setting": "[2]; MTT, p<0.05", "result": "significantly more sensitive"},
      {"measurement": "melanoma tumor regression", "setting": "melanoma tumor", "result": "caused melanoma tumor regression"}
    ]}
  ]
}
